Here are results for three compounds from patent US4483989A, “Synthesis of pyrido[4,3-b]carbazole derivatives” (priority 1973, dated 1984).

In data set [1] the test system is mouse L 1210 leukemia. Description: L1210 leukemia in mice: inoculum of 10^5 cells, single dose of compound 24 hours later. The class given is in vivo. Particulars: for ED (ILS 25%): Mus musculus, L1210, ip, read-out: L 1210 cells: in vivo dose to reach ILS 25%. An excerpt: The experimental tumor mouse L 1210 leukemia is commonly used to evaluate the effects of all the antitumor compounds now used in human therapeutics,as was described, for example, by C. C. ZUBROD in Proc. Nat. Acad. Sci. USA 69, 1972, pp. 1042-1047. This experimentally formed tumoral system permits very accurate quantitative evaluation of the activity of the compound tested and also, consequently, an objective comparison of the respective activities of various compounds, for example, according to the methods described by H. E. SKIPPER, F. M. SCHABEL Jr. and W. S. WILCOX in Cancer Chemiother. Rep. 1964, pp. 1-111 and 45, 1965, pp. 5-28.
(§1) The mice were randomized in each experimental series. A first routine experiment enable the death rate by toxicity to be determined and thus established the sublethal doses.
According to the convention in force in this field, the animals which survived longer than 45 days after inoculation of tumoral cells were considered to be cured.
(§2) To evaluate the therapeutic activity of the compounds of the invention, doses of said compound were expressed basing them on the 30 days sublethal dose which was fixed at 1.
A--A tumoral inoculum of 10^5 L1210 leukemia cells was administered by the intraperitoneal way to twenty 2 to 3 months old DBA/2 strain female mice. 24 hours later, half of said mice received a single intraperitoneal injection of a variable dose of the compound to be tested and the same volume of solvent was administered to the other half of the mice by the same way; this latter half of the group of mice was therefore used as the control series. The mice were randomized in each experimental series.
Animals surviving for longer than 45 days were considered to be cured.

Data set [2] has as its system advanced breast, thyroid, or colon cancers. Description: Phase I trial, weekly intravenous dose, refractory patients. The class given is in vivo, human. On the procedure:
A phase I trial was done at the Cancer Institute of 14-Caen, France. A weekly dose in the range of 50 to 100 mg per m2 was given intravenously over a 30 minutes period to patients refractory to usual chemotherapeutic or radiotherapeutic treatments (3). […] They were suffering from advanced breast, thyroid, or colon cancers, with bone or lung metastasis in mostcases.

Data set [3] is described as follows: Autoradiography with 14C-labeled molecules (biodisponibility). The class given is in vivo. An excerpt:
To understand the increase of the antitumor efficiency of the quaternarized compounds, several parameters of action of 9--OH--E and its methyl derivative have been comparatively established (see table III). Both compounds have about the same affinity for DNA. On a weight basis, the methyl compound is about 10 times more toxic in mice but also 10 times more efficient on leukemic mice (ILS). […] Therefore, there is no quantitative parallel between the in vivo and in vitro action of these drugs. The N-quaternization markedly changes the biodisponibility of the drugs as shown by autoradiography with ^14 C-labeled molecules. […] Several ellipticine derivatives are mutagenic on Ames Salmonella test; however, the quaternized derivatives lose this property. The microsomes, which are able to metabolize some ellipticines, increase the mutagenic ability of these drugs in vitro. […] Due to the curved shape of their molecules, their relative hydrophobicity, and the presence of a heterocyclic nitrogen, the ellipticines are good substrates for the cytochrome P450 system, provided that the 2-N remains uncharged.

For data set [4] the following is noted: for LDo (highest non lethal dose / sublethal dose) for mice: route not given.
Text: as §1, §2

The target in the next data set is DNA. Description: DNA affinity. The class given is binding.
The conditions of data set [5]: mouse, in vivo.
In the next data set the test system is mouse P 388 leukemia. Description: P 388 leukemia in mice, same procedure, inoculum of 10^5 cells. The class given is in vivo. Particulars: same doses, compared with L1210 leukemia. An excerpt: The effect the compounds of the invention have on mouse L 1210 or P 388 leukemias was used to test the antitumor activity of said compounds.
B-The same procedure was used as in A, but after a tumoral inoculum of 10^5 P 388 leukemia cells had been injected to the mice. The therapeutic activity of the 9-hydroxy 2-methyl-ellipticinium was similar on this mouse P 388 leukemia to that obtained on mouse L1210 leukemia, using the same doses.

The subject of another data set is L1210 cells. Description: Rate of L1210 cells multiplication in vitro. The format is cell-based, mouse.
The conditions of data set [6]: cited from earlier work.
Data set [7] concerns acute lymphoblastic leukemia. To be noted: in vivo; cited from earlier work.
A further data set concerns Hodgkin's disease. To be noted: in vivo; cited from earlier work.
In data set [8] the test system is acute myeloblastic leukemia. Particulars: in vivo; cited from earlier work.
Data set [9] relates to mouse L 1210 leukemia. Particulars: in vivo; cited from earlier work.
The subject of another data set is BP 8 tumors. Particulars: mouse, in vivo; cited from earlier work.
Data set [10] can be described thus: Metabolic studies in mice.

Molecules are shown by their SMILES. Entries after “also recorded” stand apart in the source; their conditions may differ. Like-named read-outs stand apart in the source and are kept apart here.

As for `Cc1c2cc[n+](C)cc2c(C)c2c1[nH]c1ccc(O)cc12` [9-hydroxy 2-methyl ellipticinium acetate, 9-hydroxy-2-methyl-ellipticinium acetate], in the data set with mouse L 1210 leukemia [1] (L1210 leukemia), the “Doses smaller than the doses of 9-hydroxy-ellipticine necessary to obtain a comparable result” value was “about 10 times”. For the same compound, in the data set with mouse L 1210 leukemia [1] (mice), the ED (ILS 25%) amounted to 1 mg/kg. In addition, the “Cured mouse surviving more than 45 days” value in the data set with mouse L 1210 leukemia [1] (footnote of table IV, I.P., 10^5 L1210 cells) was 1 out of 20 mice. Also, the “Efficiency on leukemic mice (ILS) relative to 9--OH--E, on a weight basis” value in the data set with mouse L 1210 leukemia [1] (mouse, in vivo) was “about 10 times”. The “Activity on human tumors” value in [2] (human, in vivo) is “active on some human tumors”. For the same compound, the Toxic side effects result in data set [2] (phase I trial) is reported as “No major toxic side effects”. Moreover, in [2] (weekly 50 to 100 mg per m2 intravenously over 30 minutes), the “Patients with subjective or objective improvements” value was “Eight of the first 18 patients”. Also, in [3], the Elimination result is “elimination through feces is reduced”. In data set [3] (listed as methyl derivative), the “Organ distribution (autoradiography)” value was “devoid of any ability to concentrate in lungs and pancreas; also recorded: capacity to concentrate in the intestinal walls and in the thyroid”. In [4], the “Toxicity in mice relative to 9--OH--E, on a weight basis” value is reported as “about 10 times” and the “LDo (highest non lethal dose / sublethal dose) for mice” value was 5 mg/kg. This compound also had a Kd at DNA of 0.769 µM. The Metabolism entry in data set [5] is listed as “excreted with no major modification”. In addition, the “Therapeutic activity on mouse P 388 leukemia” value in the data set with mouse P 388 leukemia is reported as “similar”. In the data set with L1210 cells, the “Activity on the rate of growth of L1210 cells in vitro relative to 9--OH--E” value is “four times less active”.
As to `COc1ccc2[nH]c3c(C)c4ccncc4c(C)c3c2c1` [9-methoxy-ellipticine lactate], the Immunosuppressive action result in data set [6] (administered after the antigen) is “has an immunosuppressive action”; in [6] (administered to humans) it was “does not reveal such an activity”. In addition, the “Effectiveness in acute lymphoblastic leukemia” value in [7] is “ineffective”. In the data set with Hodgkin's disease, the “Effectiveness in Hodgkin's disease” value is on record as “ineffective”. Further, the “Effectiveness in acute myeloblastic leukemia” value in data set [8] is recorded as “effective”. The “Oncostatic action in mouse L 1210 leukemia” value in the data set with mouse L 1210 leukemia [9] is “oncostatic action”. Moreover, the “Oncostatic action in BP 8 tumors” value in the data set with BP 8 tumors is on record as “oncostatic action”.
Regarding `Cc1c2ccncc2c(C)c2c1[nH]c1ccc(O)cc12` [Example 9-OH--E, 9-hydroxy-ellipticine, reference compound], the Metabolism entry in [10] is “only glucuroconjugated”. Besides, the ED (ILS 25%) with mouse L 1210 leukemia [1] was 10 mg/kg. For the same compound, in data set [3], the Elimination entry was “mostly eliminated through the bile into feces”; the “Organ distribution (autoradiography)” value was “concentrates in several organs, including the lungs and the pancreas”. For the same compound, the “LDo (highest non lethal dose / sublethal dose) for mice” value in data set [4] was found to be 50 mg/kg. This compound had a Kd at DNA of 0.435 µM.
